These compounds were tested against T1, Human CYP8B1 (Homo sapiens, UniProt Q9UNU6) (assay: Human CYP8B1 Liver Microsome Assay). Conditions: Human CYP8B1 IC50, human liver microsomes; substrate 7a-hydroxy-4-cholesten-3-one, NADPH; RapidFire MS detection of 7α,12α-dihydroxy-4-cholesten-3-one.
T1 sequence (Q9UNU6 1-501): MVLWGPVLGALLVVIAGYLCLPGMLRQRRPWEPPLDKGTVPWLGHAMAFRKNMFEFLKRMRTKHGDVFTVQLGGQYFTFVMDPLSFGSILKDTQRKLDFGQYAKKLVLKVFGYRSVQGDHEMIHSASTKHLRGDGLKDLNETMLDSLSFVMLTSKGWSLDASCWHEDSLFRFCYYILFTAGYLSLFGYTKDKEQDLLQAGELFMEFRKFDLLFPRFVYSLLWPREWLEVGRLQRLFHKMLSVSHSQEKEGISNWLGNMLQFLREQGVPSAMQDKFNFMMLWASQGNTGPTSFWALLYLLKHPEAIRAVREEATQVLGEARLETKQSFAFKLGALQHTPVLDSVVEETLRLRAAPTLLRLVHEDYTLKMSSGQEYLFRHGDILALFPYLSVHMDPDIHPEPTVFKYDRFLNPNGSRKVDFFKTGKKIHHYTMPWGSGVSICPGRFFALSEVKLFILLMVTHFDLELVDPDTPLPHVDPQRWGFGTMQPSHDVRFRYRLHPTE

Structure (SMILES) | IC50
CC(C)COc1ccc2c(N3CCC(C(=O)N4CCn5c(nnc5C(F)(F)F)C4)CC3)c(C#N)cnc2c1 [Example 69] | 0.42 nM
COc1ccc2nc(C)c(C#N)c(N3CCC(C(=O)N4CCn5c(nnc5C(F)(F)F)C4)CC3)c2c1 [Example 47, 6-methoxy-2-methyl-4-(4-(3-(trifluoromethyl)-5,6,7,8-tetrahydro-[1,2,4]triazolo[4,3-a]pyrazin-7-carbonyl)piperidin-1-yl)quinoline-3-carbonitrile] | 564 nM
C[C@@H]1CN(c2c(C#N)c[n+]([O-])c3cc(OCC4CC4)ccc23)CC[C@@H]1C(=O)N1CCn2c(nnc2C(F)(F)F)C1 [Example 71, 7-(cyclopropylmethoxy)-4-[(3S,4S)-3-methyl-4-{[3-(trifluoromethyl)-5,6-dihydro[1,2,4]triazolo[4,3-a]pyrazin-7(8H)-yl]carbonyl}piperidin-1-yl]quinoline-3-carbonitrile 1-oxide] | 0.54 nM
CCOc1ccc2c(N3CC[C@H](C(=O)N4CCn5c(nnc5C(F)(F)F)C4)[C@H](C)C3)c(C#N)cnc2c1 [Example 39, 7-ethoxy-4-[(3S,4S)-3-methyl-4-{[3-(trifluoromethyl)-5,6-dihydro[1,2,4]triazolo[4,3-a]pyrazin-7(8H)-yl]carbonyl}piperidin-1-yl]quinoline-3-carbonitrile] | 0.7 nM
Cc1ccc2nc(C)c(C#N)c(N3CCC(C(=O)N4CCn5c(nnc5C(F)(F)F)C4)CC3)c2c1 [Example 52, 2,6-dimethyl-4-(4-(3-(trifluoromethyl)-5,6,7,8-tetrahydro-[1,2,4]triazolo[4,3-a]pyrazine-7-carbonyl)piperidin-1-yl)quinoline-3-carbonitrile] | 118 nM
N#Cc1cnc2ccc(Cl)cc2c1N1CC[C@@H](C(=O)N2CCn3c(nnc3C(F)(F)F)C2)[C@@H](C2CC2)C1 [Example 76a, 6-chloro-4-[(3R,4R)-3-cyclopropyl-4-{[3-(trifluoromethyl)-5,6-dihydro[1,2,4]triazolo[4,3-a]pyrazin-7(8H)-yl]carbonyl}piperidin-1-yl]quinoline-3-carbonitrile] | 1320 nM
C[C@@H]1CN(c2c(C#N)cnc3cc(OC(F)F)ccc23)CC[C@@H]1C(=O)N1CCn2c(nnc2C(F)(F)F)C1 [Example 62, 7-(difluoromethoxy)-4-[(3S,4S)-3-methyl-4-{[3-(trifluoromethyl)-5,6-dihydro[1,2,4]triazolo[4,3-a]pyrazin-7(8H)-yl]carbonyl}piperidin-1-yl]quinoline-3-carbonitrile] | 1.1 nM
C[C@@H]1CN(c2c(C#N)cnc3cc(O)ccc23)CC[C@@H]1C(=O)N1CCn2c(nnc2C(F)(F)F)C1 [Example 5, 7-hydroxy-4-[(3S,4S)-3-methyl-4-{[3-(trifluoromethyl)-5,6-dihydro[1,2,4]triazolo[4,3-a]pyrazin-7(8H)-yl]carbonyl}piperidin-1-yl]quinoline-3-carbonitrile] | 1.4 nM
C[C@@H]1CN(c2c(C#N)cnc3c(F)c(Cl)ccc23)CC[C@@H]1C(=O)N1CCn2c(nnc2C2CC2)C1 [Example 66, 7-chloro-4-{(3S,4S)-4-[(3-cyclopropyl-5,6-dihydro[1,2,4]triazolo[4,3-a]pyrazin-7(8H)-yl)carbonyl]-3-methylpiperidin-1-yl}-8-fluoroquinoline-3-carbonitrile] | 0.51 nM
COc1ccc2c(N3CC[C@H](C(=O)N4CCn5c(nnc5C(F)(F)F)C4)[C@H](C)C3)c(C#N)cnc2c1 [Example 28, 7-methoxy-4-[(3S,4S)-3-methyl-4-{[3-(trifluoromethyl)-5,6-dihdyro[1,2,4]triazolo[4,3-a]pyrazin-7(8H)-yl]carbonyl}piperidin-1-yl]quinoline-3-carbonitrile] | 0.61 nM
Cc1nc2ccc(C3CC3)cc2c(N2CCC(C(=O)N3CCn4c(nnc4C(F)(F)F)C3)CC2)c1C#N [Example 53, 6-cyclopropyl-2-methyl-4-(4-(3-(trifluoromethyl)-5,6,7,8-tetrahydro-[1,2,4]triazolo[4,3-a]pyrazine-7-carbonyl)piperidin-1-yl)quinoline-3-carbonitrile] | 76 nM
C[C@H]1CN(c2c(C#N)c(C(F)F)nc3ccc(Cl)cc23)CC[C@H]1C(=O)N1CCn2c(nnc2C(F)(F)F)C1 (single isomer, unassigned) [Example 57b] | 1490 nM
Cc1nc2ccc(F)cc2c(N2CC[C@H](C(=O)N3CCn4c(nnc4C(F)(F)F)C3)[C@H](C)C2)c1C#N [Example 29, 6-fluoro-2-methyl-4-[(3S,4S)-3-methyl-4-{[3-(trifluoromethyl)-5,6-dihydro[1,2,4]triazolo[4,3-a]pyrazin-7(8H)-yl]carbonyl}piperidin-1-yl]quinoline-3-carbonitrile] | 9.4 nM
N#Cc1cnc2cc(OCC3CC3)ccc2c1N1CCC(C(=O)N2CCn3c(nnc3C(F)(F)F)C2)CC1 [Example 68, 7-(cyclopropylmethoxy)-4-(4-{[3-(trifluoromethyl)-5,6-dihydro[1,2,4]triazolo[4,3-a]pyrazin-7(8H)-yl]carbonyl}piperidin-1-yl)quinoline-3-carbonitrile] | 0.43 nM
CC(C)Oc1ccc2c(N3CC[C@H](C(=O)N4CCn5c(nnc5C(F)(F)F)C4)[C@H](C)C3)c(C#N)cnc2c1F [Example 37, 8-fluoro-4-[(3S,4S)-3-methyl-4-{[3-(trifluoromethyl)-5,6-dihydro[1,2,4]triazolo[4,3-a]pyrazin-7(8H)-yl]carbonyl}piperidin-1-yl]-7-(propan-2-yloxy)quinoline-3-carbonitrile] | 0.54 nM
N#Cc1cnc2c(F)c(Cl)ccc2c1N1CCC(C(=O)N2CCn3c(nnc3C(F)(F)F)C2)CC1 [Example 41, 7-chloro-8-fluoro-4-(4-{[3-(trifluoromethyl)-5,6-dihdyro[1,2,4]triazolo[4,3-a]pyrazin-7(8H)-yl]carbonyl}piperidin-1-yl)quinoline-3-carbonitrile] | 43 nM
C[C@@H]1CN(c2c(C#N)cnc3cccnc23)CC[C@@H]1C(=O)N1CCn2c(nnc2C(F)(F)F)C1 [Example 33, 4-[(3S,4S)-3-methyl-4-{[3-(trifluoromethyl)-5,6-dihydro[1,2,4]triazolo[4,3-a]pyrazin-7(8H)-yl]carobnyl}piperidin-1-yl]-1,5-naphthyridine-3-carbonitrile] | 1.3 nM

The remaining lines, values ahead:

IC50 | Structure (SMILES)
0.7 nM | C[C@@H]1CN(c2c(C#N)cnc3c(F)cc(C(F)F)cc23)CC[C@@H]1C(=O)N1CCn2c(nnc2C(F)(F)F)C1 [Example 88, 6-(difluoromethyl)-8-fluoro-4-((3S,4S)-3-methyl-4-(3-(trifluoromethyl)-5,6,7,8-tetrahydro-[1,2,4]triazolo[4,3-a]pyrazine-7-carbonyl)piperidin-1-yl)quinoline-3-carbonitrile]
2 nM | C[C@@H]1CN(c2c(C#N)cnc3c2CCN(C(=O)OC2(C)CC2)C3)CC[C@@H]1C(=O)N1CCn2c(nnc2C2CC2)C1 [Example 85, 1-methylcyclopropyl 3-cyano-4-((3S,4S)-4-(3-cyclopropyl-5,6,7,8-tetrahydro-[1,2,4]triazolo[4,3-a]pyrazine-7-carbonyl)-3-methylpiperidin-1-yl)-5,6-dihydro-1,7-naphthyridine-7(8H)-carboxylate]
0.35 nM | [2H]C([2H])([2H])Oc1ccc2c(N3CC[C@H](C(=O)N4CCn5c(nnc5C(F)(F)F)C4)[C@H](C)C3)c(C#N)cnc2c1 [Example 80, 7-[(^2H3)methyloxy]-4-[(3S,4S)-3-methyl-4-{[3-(trifluoromethyl)-5,6-dihydro[1,2,4]triazolo[4,3-a]pyrazin-7(8H)-yl]carbonyl}piperidin-1-yl]quinoline-3-carbonitrile]
5.6 nM | N#Cc1cnc2ccc(Cl)cc2c1N1CCC(C(=O)N2CCc3c(C4CC4)n[nH]c3C2)CC1 [Example 107, 6-chloro-4-{4-[(3-cyclopropyl-1,4,5,7-tetrahydro-6H-pyrazolo[3,4-c]pyridin-6-yl)carbonyl]piperidin-1-yl}quinoline-3-carbonitrile]
69.7 nM | CC1CN(C(=O)C2CCN(c3c(C#N)cnc4ccc(Cl)cc34)CC2)Cc2nnc(C(F)(F)F)n21 (stereo not shown) [Example 112, 6-chloro-4-(4-{[5-methyl-3-(trifluoromethyl)-5,6-dihydro[1,2,4]triazolo[4,3-a]pyrazin-7(8H)-yl]carbonyl}piperidin-1-yl)quinoline-3-carbonitrile]
98 nM | N#Cc1cnc2ccc(Cl)cc2c1N1CCN(C(=O)N2CCn3c(nnc3C(F)(F)F)C2)C2(CC2)C1 [Example 127, 6-chloro-4-(4-{[3-(trifluoromethyl)-5,6-dihydro[1,2,4]triazolo[4,3-a]pyrazin-7(8H)-yl]carbonyl}-4,7-diazaspiro[2.5]oct-7-yl)quinoline-3-carbonitrile]
375 nM | CC1(C)CN(C(=O)C2CCN(c3c(C#N)cnc4ccc(Cl)cc34)CC2)Cc2nnc(C(F)(F)F)n21 [Example 109, 6-chloro-4-(4-{[5,5-dimethyl-3-(trifluoromethyl)-5,6-dihydro[1,2,4]triazolo[4,3-a]pyrazin-7(8H)-yl]carbonyl}piperidin-1-yl)quinoline-3-carbonitrile]
1.4 nM | CC1CN(c2c(C#N)cnc3ccc(Cl)cc23)CCC1C(=O)N1CCn2c(nnc2C(F)(F)F)C1 (stereo not shown) [Example 116, 6-chloro-4-(3-methyl-4-(3-(trifluoromethyl)-5,6,7,8-tetrahydro-[1,2,4]triazolo[4,3-a]pyrazine-7-carbonyl)piperidin-1-yl)quinoline-3-carbonitrile]

Reference: patent US10414774B2, “Compound useful for altering the levels of bile acids for the treatment of diabetes and cardiometabolc disease” (Merck Sharp & Dohme Corp., priority 2016, dated 2019)
